The results in this text go back to US20060269621A1, “Novel therapeutic extracts and molecules for degenerative conditions” (Avestha Gengraine Technologies Pvt.Ltd., priority 2003, published 2006).

The test system of experiment [1] is 3T3-L1 adipocytes. In words: Standardization / validation of [3H]-glucose uptake 3T3-L1 assay with insulin and glitazone. The class given is cell-based. The conditions noted are these: for [3H]-glucose uptake with insulin: in cpm (unit assumed); for Counts with insulin: insulin alone control. The protocol:
In the first set of assays (insulin control and the first 9 samples) cells were grown in 96 well plates, and assayed for 3H-deoxyglucose uptake. Briefly cells were treated with plant extract overnight and immediately before the assay got washed with Krebs-Ringer-HEPES Buffer [20 mM HEPES, pH 7.4, 136 mM NaCl, 4.7 mM KCl, 1.5 mM MgSO4] at 37° C. for 30 minutes and then treated with insulin. Glucose uptake reaction was initiated by adding 0.1 mM deoxy-glucose containing deoxy-tritiated-glucose containing 12.2 kBq/mL. After 30 minutes of 37° C. incubation, the reaction was terminated by adding 40 uM cytochalasin-B. Cells were washed 3× with ice cold KRH buffer and solubilized with 100 μl of 10% Triton-X with Ca/Mg free PBS. Radioactivity incorporated into cells was measured on a top count microplate scintillation counter. Results are being interpreted as mean±SD of counts per minute.
As the basal counts were low, the assay design was changed to a 24-well format and the cell numbers increased from 100,000 cells per well to 2 million cells per well.
The two controls in this experiment were: (a) [^3H]-deoxyglucose uptake by cells in the absence of both insulin and plant extracts, and (b) [^3H]-deoxyglucose uptake by cells in the presence of insulin and absence of plant extracts.

The subject of experiment [2] is 3T3-L1 adipocytes. The experiment is described as above. The class given is cell-based. The following applies: 48 hrs.

As for `O=C1NC(=O)C(Cc2ccc(O)cc2)S1` (stereo not drawn) [Glitazone], the Counts per minute in experiment [1] (Glitazone 150 μg, 48 hrs) was 15900.4 Counts per minute; in experiment [2] (Glitazone 60 μg) it was 7886 Counts per minute; in experiment [2] (Glitazone 300 μg) it was 47971.9 Counts per minute.

For the molecule Insulin, the “[3H]-glucose uptake with insulin” value in experiment [1] (100,000 cells/well, Insulin 1 nM) came out at 60.5; in experiment [1] (100,000 cells/well, Insulin 10 nM), 502; in experiment [1] (100,000 cells/well, Insulin 100 nM) it was 1850; in experiment [1] (2,000,000 cells/well, Insulin 10 nM) it was 36562; in experiment [1] (2,000,000 cells/well, Insulin 25 nM), 38538; in experiment [1] (2,000,000 cells/well, Insulin 100 nM), 55258. Also, the Counts per minute in experiment [1] (Insulin 25 nM, 15 min) turned out to be 48026.7 Counts per minute; in experiment [1] (Insulin 25 nM, 30 min), 24699.9 Counts per minute; in experiment [1] (Insulin 25 nM, 60 min), 28103.3 Counts per minute. Further, the “[3H]-deoxyglucose uptake, Counts per minute” value in experiment [1] (control: cells + insulin, no plant extract) is on record as 36561 Counts per minute. Further, the Counts with insulin in experiment [1] (Table 15, first of two value columns) came out at 33065.1 Counts per minute; in experiment [1] (Table 15, second of two value columns) it was 32352.28 Counts per minute.
